Read-outs that look alike come from different tables or passages of the source.
Tests used:
[1] = target: T1, human recombinant norepinephrine (NE) uptake site (Homo sapiens, UniProt P23975); assay: Binding at the norepinephrine (NE) uptake site
T1 construct: expressed in transfected cells

[2] = test system: nonselective muscarinic receptor; assay: Binding at the nonselective muscarinic receptor; set-up: species or system rat
[3] = target: serotonin (5-HT) uptake site (Rattus norvegicus, UniProt P31652); settings: summary of the table data
Procedure: IC50 values (concentration required to inhibit 50% specific binding) were then determined by nonlinear regression analysis of the curves and tabulated below.

T1 sequence (P23975 whole entry): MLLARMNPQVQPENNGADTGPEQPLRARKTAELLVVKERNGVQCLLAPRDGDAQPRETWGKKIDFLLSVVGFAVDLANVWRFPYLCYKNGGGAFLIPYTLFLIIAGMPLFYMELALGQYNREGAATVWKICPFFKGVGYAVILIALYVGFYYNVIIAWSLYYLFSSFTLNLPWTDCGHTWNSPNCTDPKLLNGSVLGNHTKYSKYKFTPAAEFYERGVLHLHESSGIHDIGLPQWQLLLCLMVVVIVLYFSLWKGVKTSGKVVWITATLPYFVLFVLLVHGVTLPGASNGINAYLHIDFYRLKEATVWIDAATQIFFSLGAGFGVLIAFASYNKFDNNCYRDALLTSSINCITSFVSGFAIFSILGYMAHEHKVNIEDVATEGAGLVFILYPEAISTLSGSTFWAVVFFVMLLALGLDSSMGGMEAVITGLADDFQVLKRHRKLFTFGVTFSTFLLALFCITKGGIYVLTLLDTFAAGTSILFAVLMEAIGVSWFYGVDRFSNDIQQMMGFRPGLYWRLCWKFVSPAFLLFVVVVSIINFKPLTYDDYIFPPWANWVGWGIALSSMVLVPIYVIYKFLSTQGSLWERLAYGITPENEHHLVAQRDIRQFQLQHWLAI
Chain of serotonin (5-HT) uptake site (P31652 whole entry): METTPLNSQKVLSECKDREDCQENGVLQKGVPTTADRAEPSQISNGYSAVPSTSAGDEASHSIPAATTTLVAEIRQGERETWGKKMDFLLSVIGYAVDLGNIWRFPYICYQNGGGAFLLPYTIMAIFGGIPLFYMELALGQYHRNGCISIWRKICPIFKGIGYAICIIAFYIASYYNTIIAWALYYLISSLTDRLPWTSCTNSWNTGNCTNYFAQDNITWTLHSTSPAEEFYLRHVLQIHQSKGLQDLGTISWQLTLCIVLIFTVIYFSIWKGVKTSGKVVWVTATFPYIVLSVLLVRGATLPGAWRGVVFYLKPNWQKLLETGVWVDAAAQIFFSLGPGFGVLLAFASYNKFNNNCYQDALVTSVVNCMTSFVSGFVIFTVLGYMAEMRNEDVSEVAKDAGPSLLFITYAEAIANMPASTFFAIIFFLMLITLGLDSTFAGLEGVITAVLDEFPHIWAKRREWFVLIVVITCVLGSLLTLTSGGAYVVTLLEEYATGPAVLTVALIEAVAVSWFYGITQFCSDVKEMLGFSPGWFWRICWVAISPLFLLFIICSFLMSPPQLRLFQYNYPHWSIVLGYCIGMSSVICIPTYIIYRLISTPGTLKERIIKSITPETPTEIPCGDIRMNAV

Work on CC(C)CC(N)C1(c2ccc(Cl)cc2)CCC1 (racemic) [(R/S)-DDMS] yielded an IC50 ([1]; human recombinant NE uptake site, single value or first value before slash, read-out: Binding IC50 Values (nM) NE Uptake) of 16 nM.
CC(C)C[C@@H](N)C1(c2ccc(Cl)cc2)CCC1 [(R)-DDMS] showed an IC50 [1] of 13 nM.
In the case of CC(C)C[C@H](N)C1(c2ccc(Cl)cc2)CCC1 [(S)-DDMS, 1-[1-(4-chlorophenyl)cyclobutyl]-3-methyl-butylamine], the “Affinity for the muscarinic site, result in words” value ([2]; summary of the table data) is reported as “without appreciable 5-HT or muscarinic activity”, the IC50 [1] is reported as 6.2 nM and the “NE uptake site binding, result in words” value ([1]; summary of the table data) is reported as “potent inhibitor of NE uptake”. For the same molecule, the “5-HT uptake site binding, result in words” value [3] was “without appreciable 5-HT or muscarinic activity”.
CN1[C@@H]2CC[C@H]1C[C@@H](OC(=O)C(CO)c1ccccc1)C2 (stereo partly shown) [Atropine, reference compound] was tested, and the IC50 ([2]; rat cerebral cortex, inhibition of specific binding, competition curves, read-out: Binding IC50 Values (nM) Mucarinic Receptor) was 0.31 nM.

Reference: patent US20050228052A1, “Methods of treating, preventing and managing a sleep disorder using (S)-didesmethylsibutramine” (priority 2004, published 2005)
